# Patent US20250304567A1, “PYRROLIDIONE DERIVATIVES AS INHIBITORS OF NF KAPPA B INDUCING KINASE” (priority 2022, published 2025)
# Read-outs that look alike come from different tables or passages of the source.
# Experiments:
# [1] = molecular target: Recombinant Human NF-kappaB-Inducing Kinase (NIK/MAP3K14) (Homo sapiens, UniProt Q99558); assay: Inhibition of auto-phosphorylation of recombinant human NIK/MAP3K14 activity (AlphaScreen); type: biochemical; details: 5 μM ATP, 1 nM NIK, average if tested more than once
# Outline: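 AlphaScreen detection of phospho-Ser176/180 after 1 nM GST-NIK auto-phosphorylates for 2 h at 25 °C with 5 μM ATP (50 mM Tris pH 7.5, 0.7% DMSO). IC50s come from sigmoidal curves of % inhibition against log dose, using enzyme-free, ATP-free low controls and full-activity high controls.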
# [2] = test system: p-IKKa levels in L363 (NIK translocated multiple myeloma) cells; assay: Effect of compounds on p-IKKa levels in L363 (NIK translocated multiple myeloma) cells (AlphaLISA SureFire Ultra p-IKKa Ser176/180); type: cell-based, human; details: average if tested more than once, read-out: Assay 2 IC50
# Outline: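 Phospho-IKKa (Ser176/180) in lysates quantified by AlphaLISA after 6 h compound exposure, 11-point threefold dilutions, 0.3% DMSO. L363 cells were pre-stimulated overnight and assayed with 250 ng/ml BAFF and 10 μM MG132; % inhibition fitted sigmoidally for IC50, duplicate curves.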
# [3] = Homo sapiens, L-363, p-IKKa levels in L363 cells
# Recombinant Human NF-kappaB-Inducing Kinase (NIK/MAP3K14), sequence (Q99558 whole entry): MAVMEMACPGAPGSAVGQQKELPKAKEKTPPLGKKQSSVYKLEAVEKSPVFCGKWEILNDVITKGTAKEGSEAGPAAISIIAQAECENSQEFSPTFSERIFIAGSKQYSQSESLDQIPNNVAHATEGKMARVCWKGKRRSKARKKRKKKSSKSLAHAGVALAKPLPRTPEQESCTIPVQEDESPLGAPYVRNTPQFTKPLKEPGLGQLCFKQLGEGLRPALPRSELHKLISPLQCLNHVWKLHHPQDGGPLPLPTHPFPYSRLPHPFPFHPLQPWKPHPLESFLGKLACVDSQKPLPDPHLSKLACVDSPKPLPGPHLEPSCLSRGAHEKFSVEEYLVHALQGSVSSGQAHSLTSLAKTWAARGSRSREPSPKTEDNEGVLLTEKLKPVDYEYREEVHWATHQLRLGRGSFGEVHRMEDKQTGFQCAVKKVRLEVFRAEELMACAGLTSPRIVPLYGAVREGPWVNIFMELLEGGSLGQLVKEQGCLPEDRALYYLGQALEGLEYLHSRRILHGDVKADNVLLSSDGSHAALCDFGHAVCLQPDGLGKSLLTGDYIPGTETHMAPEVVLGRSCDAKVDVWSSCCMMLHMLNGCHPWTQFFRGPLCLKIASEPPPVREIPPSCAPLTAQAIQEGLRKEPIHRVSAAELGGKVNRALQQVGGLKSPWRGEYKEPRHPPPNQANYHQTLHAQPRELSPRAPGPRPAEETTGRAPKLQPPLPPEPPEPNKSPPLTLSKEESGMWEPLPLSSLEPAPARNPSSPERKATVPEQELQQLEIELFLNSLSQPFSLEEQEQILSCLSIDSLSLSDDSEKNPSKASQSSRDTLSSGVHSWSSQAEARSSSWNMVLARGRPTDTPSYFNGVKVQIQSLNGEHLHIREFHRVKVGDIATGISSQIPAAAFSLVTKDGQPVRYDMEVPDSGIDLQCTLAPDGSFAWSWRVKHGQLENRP
SMILES,IC50 [1] [nM],"IC50 [2, 3] [nM]",IC50 ([2]; p-IKKa levels in L363 cells) [nM]
"CN1CC[C@@](O)(c2cccc(-c3csc(-c4ccnc(Nc5cnn(C(CO)CO)c5)n4)n3)c2)C1=O [Example 44, (R)-3-(3-(2-(2-((1-(1,3-dihydroxypropan-2-yl)-1H-pyrazol-4-yl)amino)pyrimidin-4-yl)thiazol-4-yl)phenyl)-3-hydroxy-1-methylpyrrolidin-2-one]",< 100,> 501,–
"Cc1ncc(CNc2nccc(-c3csc(-c4cccc([C@]5(O)CCN(C)C5=O)c4)n3)n2)o1 [Example 110, (R)-3-hydroxy-1-methyl-3-(3-(4-(2-(((2-methyloxazol-5-yl)methyl)amino)pyrimidin-4-yl)thiazol-2-yl)phenyl)pyrrolidin-2-one]",< 100,> 501,–
"CN1CC[C@@](O)(c2cccc(-c3nc(-c4ccnc(Nc5cn(CCF)cn5)n4)cs3)c2)C1=O [Example 117, (R)-3-(3-(4-(2-((1-(2-fluoroethyl)-1H-imidazol-4-yl)amino)pyrimidin-4-yl)thiazol-2-yl)phenyl)-3-hydroxy-1-methylpyrrolidin-2-one]",< 100,100 to 500,–
CN1CC[C@@](O)(c2cccc(-c3nc(-c4ccnc(N[C@H]5C[C@@H](O)C5)n4)cs3)c2)C1=O [Example 180],100 to 500,> 501,–
CN1CC[C@@](O)(c2cccc(-c3nc(-c4ccnc(NCc5ccn(C)n5)n4)cs3)c2)C1=O [Example 184],< 100,> 501,–
"CN1C[C@@H](Nc2nccc(-c3csc(-c4cccc([C@]5(O)CCN(C)C5=O)c4)n3)n2)CC1=O (single isomer, unassigned) [Example 235]",< 100,> 501,–
"CN1CC[C@@](O)(c2cccc(-c3nc(-c4ccnc(Nc5ccn(-c6ccccc6)n5)n4)cs3)c2)C1=O [Example 284, (R)-3-hydroxy-1-methyl-3-(3-(4-(2-((1-phenyl-1H-pyrazol-3-yl)amino)pyrimidin-4-yl)thiazol-2-yl)phenyl)pyrrolidin-2-one]",< 100,100 to 500,–
CN1CC[C@@](O)(c2cccc(-c3nc(-c4ccnc(NCC5CCO5)n4)cs3)c2)C1=O (stereo partly drawn) [Example 190],100 to 500,> 501,–
"COCCn1nc(C)cc1Nc1nccc(-c2csc(-c3cccc([C@]4(O)CCN(C)C4=O)c3)n2)n1 [Example 107, (R)-3-hydroxy-3-(3-(4-(2-((1-(2-methoxyethyl)-3-methyl-1H-pyrazol-5-yl)amino)pyrimidin-4-yl)thiazol-2-yl)phenyl)-1-methylpyrrolidin-2-one]",> 501,> 501,–
"CN1CC[C@@](O)(c2cccc(-c3nc(-c4ccnc(Nc5cnc6ccc(F)cn56)n4)cs3)c2)C1=O [Example 279, (R)-3-(3-(4-(2-((6-Fluoroimidazo[1,2-a]pyridin-3-yl)amino)pyrimidin-4-yl)thiazol-2-yl)phenyl)-3-hydroxy-1-methylpyrrolidin-2-one]",> 501,> 501,–
"CN1CC[C@@](O)(c2cccc(-c3nc(-c4ccnc(Nc5cn(C)nn5)n4)cs3)c2)C1=O [Example 283, (R)-3-hydroxy-1-methyl-3-(3-(4-(2-((1-methyl-1H-1,2,3-triazol-4-yl)amino)pyrimidin-4-yl)thiazol-2-yl)phenyl)pyrrolidin-2-one]",< 100,100 to 500,–
"CN1CC[C@@](O)(c2cccc(-c3nc(-c4ccnc(Nc5ccn(C)n5)n4)cs3)c2)C1=O [Example 56, (R)-3-hydroxy-1-methyl-3-(3-(4-(2-((1-methyl-1H-pyrazol-3-yl)amino)pyrimidin-4-yl)thiazol-2-yl)phenyl)pyrrolidin-2-one]",< 100,100 to 500,–
"CN1CC[C@@](O)(c2cccc(-c3nc(-c4ccnc(Nc5ccnn5CC5CC5)n4)cs3)c2)C1=O [Example 65, (R)-3-(3-(4-(2-((1-(cyclopropylmethyl)-1H-pyrazol-5-yl)amino)pyrimidin-4-yl)thiazol-2-yl)phenyl)-3-hydroxy-1-methylpyrrolidin-2-one]",100 to 500,> 501,–
CN1CC(Nc2nccc(-c3csc(-c4cccc([C@]5(O)CCN(C)C5=O)c4)n3)n2)CCC1=O (stereo partly drawn) [Example 222],< 100,> 501,–
"CN1CC[C@@](O)(c2cccc(-c3nc(-c4ccnc(Nc5ccnn5CC(F)F)n4)cs3)c2)C1=O [Example 278, (R)-3-(3-(4-(2-((1-(2,2-Difluoroethyl)-1H-pyrazol-5-yl)amino)pyrimidin-4-yl)thiazol-2-yl)phenyl)-3-hydroxy-1-methylpyrrolidin-2-one]",100 to 500,> 501,–
"CN1CC[C@@](O)(c2cccc(-c3csc(-c4ccnc(Nc5cnn(C6CCS(=O)(=O)CC6)c5)n4)n3)c2)C1=O [Example 88, (R)-3-(3-(2-(2-((1-(1,1-dioxidotetrahydro-2H-thiopyran-4-yl)-1H-pyrazol-4-yl)amino)pyrimidin-4-yl)thiazol-4-yl)phenyl)-3-hydroxy-1-methylpyrrolidin-2-one]",< 100,100 to 500,–
Cc1cc(CNc2nccc(-c3csc(-c4cccc([C@]5(O)CCN(C)C5=O)c4)n3)n2)ccn1 [Example 202],< 100,> 501,–

SMILES,IC50 [1] [nM],"IC50 [2, 3] [nM]",IC50 ([2]; p-IKKa levels in L363 cells) [nM]
CN1CC[C@@](O)(c2cccc(-c3nc(-c4ccnc(NC5CC6(CC(O)C6)C5)n4)cs3)c2)C1=O (stereo partly drawn) [Example 188],100 to 500,> 501,–
CN1CC[C@@](O)(c2cccc(-c3nc(-c4ccnc(NCCCOCC(F)(F)F)n4)cs3)c2)C1=O [Example 238],100 to 500,> 501,–
"C[C@H](Nc1nccc(-c2nc(-c3cccc([C@]4(O)CCN(C)C4=O)c3)cs2)n1)c1ccnn1C (single isomer, unassigned) [Example 126]",< 100,100 to 500,–
"C[C@H](Nc1nccc(-c2nc(-c3cc([C@]4(O)CCN(C)C4=O)ccn3)cs2)n1)c1ccn(C)n1 (single isomer, unassigned) [Example 156, (R)-3-hydroxy-1-methyl-3-(2-(2-(2-(((S)-1-(1-methyl-1H-pyrazol-3-yl)ethyl)amino)pyrimidin-4-yl)thiazol-4-yl)pyridin-4-yl)pyrrolidin-2-one or (S)-3-hydroxy-1-methyl-3-(2-(2-(2-(((S)-1-(1-methyl-1H-pyrazol-3-yl)ethyl)amino)pyrimidin-4-yl)thiazol-4-yl)pyridin-4-yl)pyrrolidin-2-one]",< 100,100 to 500,–
"CC(C)Cn1cnc(Nc2nccc(-c3csc(-c4cccc([C@]5(O)CCN(C)C5=O)c4)n3)n2)c1 [Example 116, (R)-3-hydroxy-3-(3-(4-(2-((1-isobutyl-1H-imidazol-4-yl)amino)pyrimidin-4-yl)thiazol-2-yl)phenyl)-1-methylpyrrolidin-2-one]",< 100,> 501,–
"CN1CC[C@@](O)(c2cccc(-c3nc(-c4ccnc(Nc5ccn(C6CC6)n5)n4)cs3)c2)C1=O [Example 259, (R)-3-(3-(4-(2-((1-Cyclopropyl-1H-pyrazol-3-yl)amino)pyrimidin-4-yl)thiazol-2-yl)phenyl)-3-hydroxy-1-methylpyrrolidin-2-one]",< 100,100 to 500,–
"C[C@H](Nc1nccc(-c2csc(-c3cccc([C@]4(O)CCN(C)C4=O)c3)n2)n1)c1cncn1C (single isomer, unassigned) [Example 133]",< 100,> 501,–
"CN1CC[C@@](O)(c2cccc(-c3nc(-c4ccnc(N[C@@H]5CCCc6cn[nH]c65)n4)cs3)c2)C1=O (single isomer, unassigned) [Example 135]",> 501,> 501,–
"CN1CCC(O)(c2ccnc(-c3nc(-c4ccnc(Nc5ccn(C)n5)n4)cs3)c2)C1=O (single isomer, unassigned) [Example 34, 3-hydroxy-1-methyl-3-(2-(4-(2-((1-methyl-1H-pyrazol-3-yl)amino)pyrimidin-4-yl)thiazol-2-yl)pyridin-4-yl)pyrrolidin-2-one]",< 100,–,100 to 500
"CN1CC[C@@](O)(c2cccc(-c3nc(-c4ccnc(NC5[C@@H]6COC[C@@H]56)n4)cs3)c2)C1=O (stereo partly drawn) [Example 115, (R)-3-(3-(4-(2-(((1R,5R)-3-oxabicyclo[3.1.0]hexan-6-yl)amino)pyrimidin-4-yl)thiazol-2-yl)phenyl)-3-hydroxy-1-methylpyrrolidin-2-one]",100 to 500,> 501,–
"CC(Nc1nccc(-c2nc(-c3cccc(C4(O)CCN(C)C4=O)c3)cs2)n1)c1ccn(C)n1 (single isomer, unassigned) [Example 50]",100 to 500,–,> 501
CN1CC[C@@](O)(c2cccc(-c3nc(-c4ccnc(NCCc5cn(C)cn5)n4)cs3)c2)C1=O [Example 211],> 501,> 501,–
"CN1CC[C@@](O)(c2cccc(-c3csc(-c4ccnc(Nc5cnn(CCO)c5)n4)n3)c2)C1=O [Example 83, (R)-3-hydroxy-3-(3-(2-(2-((1-(2-hydroxyethyl)-1H-pyrazol-4-yl)amino)pyrimidin-4-yl)thiazol-4-yl)phenyl)-1-methylpyrrolidin-2-one]",< 100,> 501,–
Cc1nnc(Nc2nccc(-c3csc(-c4cccc([C@]5(O)CCN(C)C5=O)c4)n3)n2)o1 [Example 175],100 to 500,> 501,–
CO[C@H]1C[C@H](Nc2nccc(-c3csc(-c4cccc([C@]5(O)CCN(C)C5=O)c4)n3)n2)C1 [Example 215],< 100,> 501,–
CN1CC[C@@](O)(c2cccc(-c3nc(-c4ccnc(NC5(CO)CCC5)n4)cs3)c2)C1=O [Example 191],< 100,> 501,–
